Source: the supplement of paper PMC9663587

How the values were obtained:
[1] = compound: C=CC(=O)Nc1ccc(C(=O)Nc2[nH]nc3c2CN(C(=O)N[C@H](CN(C)C)c2ccccc2)C3(C)C)cc1 [YKL-5-124]; assay: increase in dead-cell fraction, 72 h; higher = more death;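 also: breast cancer cell lines in 384-well plates, stained with Hoechst plus LIVE/DEAD far red dye and imaged, cells above an LDR intensity threshold counted dead, Hoechst-negative corpses included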
[2] = compound: CC(=O)c1c(C)c2cnc(Nc3ccc(N4CCN(CCOCCOCCOCCNC(=O)COc5cccc6c5C(=O)N(C5CCC(=O)NC5=O)C6=O)CC4)cn3)nc2n(C2CCCC2)c1=O [BSJ-03-123]; assay: as above
[3] = compound: CC(=O)c1c(C)c2cnc(Nc3ccc(N4CCNCC4)cn3)nc2n(C2CCCC2)c1=O; assay: as above
[4] = compound: CCN1CCN(Cc2ccc(Nc3ncc(F)c(-c4cc(F)c5nc(C)n(C(C)C)c5c4)n3)nc2)CC1; assay: as above
[5] = compound: T1, CCOc1cc2ncc(C#N)c(Nc3ccc(OCc4ccccn4)c(Cl)c3)c2cc1NC(=O)/C=C/CN(C)C [Neratinib/HKI272]; assay: as above
[6] = compound: CCc1cnn2c(NCc3ccc[n+]([O-])c3)cc(N3CCCC[C@H]3CCO)nc12; assay: as above
[7] = compound: CN(C)C(=O)c1cc2cnc(Nc3ccc(N4CCNCC4)cn3)nc2n1C1CCCC1 [LEE011/Ribociclib]; assay: as above
[8] = compound: CN(C)C/C=C/C(=O)Nc1ccc(C(=O)N2CCC[C@@H](Nc3ncc(Cl)c(-c4c[nH]c5ccccc45)n3)C2)cc1 [THZ531]; assay: as above
[9] = compound: CN(C)C/C=C/C(=O)Nc1ccc(C(=O)Nc2cccc(Nc3ncc(Cl)c(-c4c[nH]c5ccccc45)n3)c2)cc1 [THZ1]; assay: as above
[10] = compound: T2, CN1CC[C@H](c2c(O)cc(O)c3c(=O)cc(-c4ccccc4Cl)oc23)[C@H](O)C1 [Flavopiridol]; assay: as above
[11] = compound: T1, Neratinib/HKI272; assay: GR value, 72 h; higher = faster growth (1 = untreated, <0 = killing);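 also: breast cancer and non-malignant breast epithelial lines, nine half-log doses, viable cells counted by Hoechst and LIVE/DEAD dye imaging versus time-zero plates and DMSO controls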
[12] = compound: T2, Flavopiridol; assay: as above

For SUM52PE, the “increase in dead-cell fraction” value ([1]; 0.001 µM) was 0.0072, the “increase in dead-cell fraction” value ([1]; 0.003162 µM) was 0.0054 and the “increase in dead-cell fraction” value ([1]; 0.01 µM) was 0.0099. The “increase in dead-cell fraction” value ([1]; 0.03162 µM) was 0.0108, the “increase in dead-cell fraction” value ([1]; 0.1 µM) was 0.013 and the “increase in dead-cell fraction” value ([1]; 0.3162 µM) was 0.0189. The “increase in dead-cell fraction” value ([1]; 1 µM) was 0.009, the “increase in dead-cell fraction” value ([1]; 3.162 µM) was 0.0202 and the “increase in dead-cell fraction” value ([1]; 10 µM) was 0.0275. The “increase in dead-cell fraction” value ([2]; 0.001 µM) was -0.0027, the “increase in dead-cell fraction” value ([2]; 0.003162 µM) was 0.001 and the “increase in dead-cell fraction” value ([2]; 0.01 µM) was 0.0043. For the same cell line, the “increase in dead-cell fraction” value ([2]; 0.03162 µM) was 0.0027, the “increase in dead-cell fraction” value ([2]; 0.1 µM) was 0.0025 and the “increase in dead-cell fraction” value ([2]; 0.3162 µM) was 0.0035. The “increase in dead-cell fraction” value ([2]; 1 µM) was 0.0021, the “increase in dead-cell fraction” value ([2]; 3.162 µM) was 0.0075 and the “increase in dead-cell fraction” value ([2]; 10 µM) was 0.025. The “increase in dead-cell fraction” value ([3]; 0.0003162 µM) was 0.0036, the “increase in dead-cell fraction” value ([3]; 0.001 µM) was -0.0018 and the “increase in dead-cell fraction” value ([3]; 0.003162 µM) was -0.0008. For the same cell line, the “increase in dead-cell fraction” value ([3]; 0.01 µM) was 0.0002, the “increase in dead-cell fraction” value ([3]; 0.03162 µM) was -0.0011 and the “increase in dead-cell fraction” value ([3]; 0.1 µM) was 0.0033. The “increase in dead-cell fraction” value ([3]; 0.3162 µM) was 0.0047, the “increase in dead-cell fraction” value ([3]; 1 µM) was 0.006 and the “increase in dead-cell fraction” value ([3]; 3.162 µM) was 0.0091. For the same cell line, the “increase in dead-cell fraction” value ([4]; 0.001 µM) was -0.0031, the “increase in dead-cell fraction” value ([4]; 0.003162 µM) was -0.0003 and the “increase in dead-cell fraction” value ([4]; 0.01 µM) was 0.0005. The “increase in dead-cell fraction” value ([4]; 0.03162 µM) was 0.0052, the “increase in dead-cell fraction” value ([4]; 0.1 µM) was 0.0077 and the “increase in dead-cell fraction” value ([4]; 0.3162 µM) was 0.0061. The “increase in dead-cell fraction” value ([4]; 1 µM) was 0.0107, the “increase in dead-cell fraction” value ([4]; 3.162 µM) was 0.0058 and the “increase in dead-cell fraction” value ([4]; 10 µM) was 0.0135. The “increase in dead-cell fraction” value ([5]; 0.0003162 µM) was -0.0009, the “increase in dead-cell fraction” value ([5]; 0.001 µM) was 0.0018 and the “increase in dead-cell fraction” value ([5]; 0.003162 µM) was 0.0022. The “increase in dead-cell fraction” value ([5]; 0.01 µM) was 0.0007, the “increase in dead-cell fraction” value ([5]; 0.03162 µM) was 0.0026 and the “increase in dead-cell fraction” value ([5]; 0.1 µM) was 0.0033. The “increase in dead-cell fraction” value ([5]; 0.3162 µM) was 0.0005, the “increase in dead-cell fraction” value ([5]; 1 µM) was 0.0053 and the “increase in dead-cell fraction” value ([5]; 3.162 µM) was 0.0166. For the same cell line, the “increase in dead-cell fraction” value ([6]; 0.0001 µM) was 0.0037, the “increase in dead-cell fraction” value ([6]; 0.0003162 µM) was 0.0003 and the “increase in dead-cell fraction” value ([6]; 0.001 µM) was 0.0018. The “increase in dead-cell fraction” value ([6]; 0.003162 µM) was 0.0012, the “increase in dead-cell fraction” value ([6]; 0.01 µM) was 0.006 and the “increase in dead-cell fraction” value ([6]; 0.03162 µM) was 0.101. For the same cell line, the “increase in dead-cell fraction” value ([6]; 0.1 µM) was 0.333, the “increase in dead-cell fraction” value ([6]; 0.3162 µM) was 0.419 and the “increase in dead-cell fraction” value ([6]; 1 µM) was 0.155. The “increase in dead-cell fraction” value ([7]; 0.001 µM) was 0.0005, the “increase in dead-cell fraction” value ([7]; 0.003162 µM) was 0.0031 and the “increase in dead-cell fraction” value ([7]; 0.01 µM) was -0.0001. For the same cell line, the “increase in dead-cell fraction” value ([7]; 0.03162 µM) was 0.0002, the “increase in dead-cell fraction” value ([7]; 0.1 µM) was -0.0001 and the “increase in dead-cell fraction” value ([7]; 0.3162 µM) was 0.0042. For the same cell line, the “increase in dead-cell fraction” value ([7]; 1 µM) was 0.0047, the “increase in dead-cell fraction” value ([7]; 3.162 µM) was 0.0047 and the “increase in dead-cell fraction” value ([7]; 10 µM) was 0.0071. The “increase in dead-cell fraction” value ([8]; 0.0001 µM) was -0.0007, the “increase in dead-cell fraction” value ([8]; 0.0003162 µM) was 0.0017 and the “increase in dead-cell fraction” value ([8]; 0.001 µM) was -0.0005. For the same cell line, the “increase in dead-cell fraction” value ([8]; 0.003162 µM) was -0.0003, the “increase in dead-cell fraction” value ([8]; 0.01 µM) was -0.0005 and the “increase in dead-cell fraction” value ([8]; 0.03162 µM) was 0.0015. For the same cell line, the “increase in dead-cell fraction” value ([8]; 0.1 µM) was 0.0054, the “increase in dead-cell fraction” value ([8]; 0.3162 µM) was 0.0857 and the “increase in dead-cell fraction” value ([8]; 1 µM) was 0.311. The “increase in dead-cell fraction” value ([9]; 0.0001 µM) was 0.0004, the “increase in dead-cell fraction” value ([9]; 0.0003162 µM) was 0.0008 and the “increase in dead-cell fraction” value ([9]; 0.001 µM) was 0.0052. The “increase in dead-cell fraction” value ([9]; 0.003162 µM) was 0.0023, the “increase in dead-cell fraction” value ([9]; 0.01 µM) was 0.002 and the “increase in dead-cell fraction” value ([9]; 0.03162 µM) was 0.061. The “increase in dead-cell fraction” value ([9]; 0.1 µM) was 0.093, the “increase in dead-cell fraction” value ([9]; 0.3162 µM) was 0.137 and the “increase in dead-cell fraction” value ([9]; 1 µM) was 0.513. The “increase in dead-cell fraction” value ([10]; 0.0001 µM) was 0.0019, the “increase in dead-cell fraction” value ([10]; 0.0003162 µM) was -0.0012 and the “increase in dead-cell fraction” value ([10]; 0.001 µM) was 0.0042. The “increase in dead-cell fraction” value ([10]; 0.003162 µM) was 0.0019, the “increase in dead-cell fraction” value ([10]; 0.01 µM) was -0.0015 and the “increase in dead-cell fraction” value ([10]; 0.03162 µM) was 0. For the same cell line, the “increase in dead-cell fraction” value ([10]; 0.1 µM) was 0.0003, the “increase in dead-cell fraction” value ([10]; 0.3162 µM) was 0.0166 and the “increase in dead-cell fraction” value ([10]; 1 µM) was 0.392. The GR value ([11]; 0.0003162 µM) was 1.01 GR, the GR value ([11]; 0.001 µM) was 0.991 GR and the GR value ([11]; 0.003162 µM) was 1.01 GR. It also gave a GR value ([11]; 0.01 µM) of 1.06 GR, a GR value ([11]; 0.03162 µM) of 1.01 GR and a GR value ([11]; 0.1 µM) of 1.01 GR. The GR value ([11]; 0.3162 µM) was 0.959 GR, the GR value ([11]; 1 µM) was 0.876 GR and the GR value ([11]; 3.162 µM) was 0.503 GR. For the same cell line, the GR value ([12]; 0.0001 µM) was 1.07 GR, the GR value ([12]; 0.0003162 µM) was 1.06 GR and the GR value ([12]; 0.001 µM) was 0.942 GR. The GR value ([12]; 0.003162 µM) was 0.915 GR, the GR value ([12]; 0.01 µM) was 1.02 GR and the GR value ([12]; 0.03162 µM) was 0.945 GR. For the same cell line, the GR value ([12]; 0.1 µM) was 0.8 GR, the GR value ([12]; 0.3162 µM) was 0.357 GR and the GR value ([12]; 1 µM) was -0.26 GR.
